Results taken from patent publication US20060235063A1, “Method of protecting a soybean plant with flutriafol” (priority 2005, published 2006).

How the values were obtained:
[1] = test system: Asian Rust (Phakopsora pachyrhizi) in Soy Beans; assay: Example 1: climate chamber test, flutriafol seed or soil dressing, plants inoculated with rust spores at third trifoliate; format: in vivo
Experimental: (§1) Soy bean seed was treated with a range of flutriafol rates, as presented in Table 1 below (right-hand side). Additionally, flutriafol was applied directly to the soil, at the rates described below (left-hand side). Three replicates were done per treatment. At the third trifoliate stage, seedlings where inoculated with rust spores on the ad- and ab-axial surfaces of the third trifoliate.
Following treatments and inoculations, the inoculated plants were transferred to a climate chamber, watered as necessary and evaluated for the incidence of Asian Rust. The average of the recorded incidence of disease (%) on the third trifoliate is presented below. An untreated control is also provided as comparative data.

soybean = assay: Example 2: field trial, count of emerged seedlings (crop safety); details: in vivo
From the text: (§2) Seed was drilled at 60 kg per hectare in four replicates per treatment. Each replicate consisted of a 6 m row of 100 seeds. With the seed treatments, fertilizer was first applied up to 2 cm below seed depth and then the rows opened to a depth of 3 cm, the seeds sown and the rows closed with soil. In each treatment there were five rows of 6 m length with 45 cm between rows. With the in-furrow treatments, the row was opened using a hoe, and then the appropriate weight amount of Impact 1.5 GR was applied in the row followed directly afterwards with seed placed over the granules. Soil was then placed over the seed to close the row.
(§3) Twenty two days after planting, the number of plants emerged was evaluated by counting the emerged seedlings in each of the central three rows of each plot. Disease assessment was done 61 days after emergence by selecting 20 leaves per plot from the whole plant at random, and estimating the percentage rust coverage (% disease severity).

soybean rust = assay: Example 2: field trial at Formoso do Araguaia, Brazil, percentage rust coverage on leaves; format: in vivo
From the text: A trial in Brazil at Formoso do Araguaia examined the rust control from nine rates of flutriafol applied as a 1.5% granule in a rate range of 4 to 40 kg formulated product per hectare (60 to 600 g flutriafol active ingredient per hectare), three rates of Vincit 2.5% powder seed dressing at […] formulated product per 100 kg seed (2.25 to 3.75 g flutriafol active ingredient per 100 kg seed) and four rates of Vincit 5% SC suspension concentrate seed dressing at 50 to 150 g formulation per 100 kg seed (1.5 to 4.5 g flutriafol active ingredient per 100 kg seed).
These treatments were compared with an untreated and a commercial standard treatment of Derosal Plus, which is a mixture of carbendazim plus thiram in a suspension concentrate formulation applied to seed at a rate of 200 ml formulation per 100 kg seed (30 g thiram plus 70 g carbendazim) per 100 kg seed. Both the untreated sample and the Derosal Plus treatment are provided below as comparative data.
as §2, §3

Asian Rust in Soy Beans = assay: Example 3: greenhouse experiment, flutriafol seed or soil dressing, plants inoculated with rust spores at third trifoliate; format: in vivo, Phakopsora pachyrhizi; design: average recorded incidence of disease on the third trifoliate: unit not given here
Experimental: as §1, with “Soya” for “Soy bean”, “3” for “1”, “where made” for “were done”
Following treatments and inoculations, the inoculated plants where transferred to a climate chamber, watered as necessary and evaluated for the incidence of Asian Rust. The average of the recorded incidence of disease on the third trifoliate is presented below.

Question: What does the source list for `OC(Cn1cncn1)(c1ccc(F)cc1)c1ccccc1F` (racemic) [flutriafol, (RS)-2,4′-difluoro-α-(1H-1,2,4-triazol-1-ylmethyl)benzhydryl alcohol]?
Answer: disease control (in words) ([1]; in-furrow treatments using 30 grams or more flutriafol per hectare): Significant improvements; average recorded incidence of disease (%) on the third trifoliate ([1]; seed treatment 3 ppm): 47%; average recorded incidence of disease (%) on the third trifoliate ([1]; seed treatment 10 ppm): 28%; average recorded incidence of disease (%) on the third trifoliate ([1]; seed treatment 30 ppm): 8%; average recorded incidence of disease (%) on the third trifoliate ([1]; seed treatment 100 ppm): 1%; average recorded incidence of disease (%) on the third trifoliate ([1]; seed treatment 300 ppm): 0%; average recorded incidence of disease (%) on the third trifoliate ([1]; seed treatment 1000 ppm): 0%; disease control (in words) ([1]; seed treatments using 10 ppm flutriafol or more): Significant improvements; average recorded incidence of disease (%) on the third trifoliate ([1]; soil application 3 g ai/Ha): 73%; average recorded incidence of disease (%) on the third trifoliate ([1]; soil application 10 g ai/Ha): 63%; average recorded incidence of disease (%) on the third trifoliate ([1]; soil application 30 g ai/Ha): 53%; average recorded incidence of disease (%) on the third trifoliate ([1]; soil application 100 g ai/Ha): 12%; average recorded incidence of disease (%) on the third trifoliate ([1]; soil application 300 g ai/Ha): 2%; average recorded incidence of disease (%) on the third trifoliate ([1]; soil application 1000 g ai/Ha): 1%; effect on plant numbers (in words) (soybean): unaffected; phytotoxicity (in words) (soybean): phytotoxic; rust control (in words) (soybean rust; all flutriafol seed treatment rates): reduction in rust; rust control (in words) (soybean rust; in-furrow, lowest rate of 60 g flutriafol/hectare, 61 days after plant emergence): controlled the rust; rust control (in words) (soybean rust; in-furrow, rates above 150 g flutriafol/hectare, 61 days after emergence): complete control; disease control (in words) (Asian Rust in Soy Beans; in-furrow treatments using 30 grams flutriafol per hectare or more): Complete disease control; disease control (in words) (Asian Rust in Soy Beans; in-furrow treatments using just 3 grams flutriafol per hectare): Significant improvements in disease control; average recorded incidence of disease on the third trifoliate (Asian Rust in Soy Beans; seed treatment 3 ppm, 21DPI): 31; average recorded incidence of disease on the third trifoliate (Asian Rust in Soy Beans; seed treatment 10 ppm, 21DPI): 35; average recorded incidence of disease on the third trifoliate (Asian Rust in Soy Beans; seed treatment 30 ppm, 21DPI): 40; average recorded incidence of disease on the third trifoliate (Asian Rust in Soy Beans; seed treatment 100 ppm, 21DPI): 0; average recorded incidence of disease on the third trifoliate (Asian Rust in Soy Beans; seed treatment 300 ppm, 21DPI): 0; average recorded incidence of disease on the third trifoliate (Asian Rust in Soy Beans; seed treatment 1000 ppm, 21DPI): 0; disease control (in words) (Asian Rust in Soy Beans; seed treatments using 100 ppm flutriafol or more): Complete disease control; average recorded incidence of disease on the third trifoliate (Asian Rust in Soy Beans; soil treatment 3 g ai/Ha, 28DPI): 18; average recorded incidence of disease on the third trifoliate (Asian Rust in Soy Beans; soil treatment 10 g ai/Ha, 28DPI): 16; average recorded incidence of disease on the third trifoliate (Asian Rust in Soy Beans; soil treatment 30 g ai/Ha, 28DPI): 0; average recorded incidence of disease on the third trifoliate (Asian Rust in Soy Beans; soil treatment 100 g ai/Ha, 28DPI): 0; average recorded incidence of disease on the third trifoliate (Asian Rust in Soy Beans; soil treatment 300 g ai/Ha, 28DPI): 0; average recorded incidence of disease on the third trifoliate (Asian Rust in Soy Beans; soil treatment 1000 g ai/Ha, 28DPI): 0
